This is an account of results in US20260258032A1, “TYROSINE KINASE 2 INHIBITORS AND USES THEREOF” (BIOGEN MA INC., priority 2022, published 2026).

For one experiment, the target named is T1, JH2 domain of human Tyk2 (Homo sapiens, UniProt P29597).
T1 construct: 10×His-tagged TYK2 JH2 domain (amino acid 575-876)
Briefly: JH2 biochemical assay (TR-FRET probe displacement). The class given is binding. As to conditions: JH2 biochemical assay. A digest of the protocol: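 A probe-displacement TR-FRET readout: compounds, tested in 3-fold, 10-point dilutions starting at […], compete with 2 nM tracer for 2 nM His-tagged JH2 (residues 575-876) detected by 0.1 nM Tb-anti-His over 60 min. IC50 comes from 4-parameter fits of normalized 520/495 nm ratios.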
In general terms: TR-FRET usually uses a lanthanide donor and a delayed reading to cut background.

The test system of experiment [1] is Tyk2 kinase activity on STAT4. The experiment can be described thus: pSTAT4 cell assay (MSD, NK92 cells). The experiment is classed as cell-based. To be noted: compounds 1 hr, stimulated 15 minutes. Summed up:
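Read-out: phospho-STAT in NK92 lysates, MSD format, anti-STAT4 antibodies. Cells were serum-starved, given compound for 1 hr (10 μM top, four-fold, 10 points) and IL2-stimulated (30 ng/mL, 15 min). Normalized percent activity vs log concentration, 4-parameter logistic fit gave IC50.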

pIC50: −log10 of the molar value. Structures can show the parent of a compound that is named as a salt.

T1 sequence (P29597 575-876): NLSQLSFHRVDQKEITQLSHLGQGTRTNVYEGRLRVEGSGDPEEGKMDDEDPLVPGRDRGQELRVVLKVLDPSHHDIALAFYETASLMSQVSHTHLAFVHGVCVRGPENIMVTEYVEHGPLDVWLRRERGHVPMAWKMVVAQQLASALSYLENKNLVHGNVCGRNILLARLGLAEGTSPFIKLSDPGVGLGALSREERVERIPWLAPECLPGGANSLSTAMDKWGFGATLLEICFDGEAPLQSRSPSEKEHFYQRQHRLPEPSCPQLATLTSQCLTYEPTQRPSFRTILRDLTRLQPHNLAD

In general, pIC50 refers to −log10 of the IC50, conventionally taken in molar units. Lower therefore signals a high IC50. Turning to `CC(=O)Nc1cc2c(cn1)C1(CC1)CN2c1cc(C)nc(F)n1` [Example 332, N-(1′-(2-fluoro-6-methylpyrimidin-4-yl)-1′,2′-dihydrospiro[cyclopropane-1,3′-pyrrolo[3,2-c]pyridin]-6′-yl)acetamide trifluoroacetate], the results for the pIC50 (at JH2 domain of human Tyk2; in experiment [1]) were 6.00 to 7.00 and not above 6.00, respectively.
As to `CC(=O)Nc1cc2c(cn1)C1(CC1)CN2c1cc(C)cc(OCC(F)(F)F)n1` [Example 333, N-(1′-(4-methyl-6-(2,2,2-trifluoroethoxy)pyridin-2-yl)-1′,2′-dihydrospiro[cyclopropane-1,3′-pyrrolo[3,2-c]pyridin]-6′-yl)acetamide trifluoroacetate], the results for the pIC50 (at JH2 domain of human Tyk2; in experiment [1]) were 6.00 to 7.00 and not above 6.00, respectively.
The like results for `CC(=O)Nc1cc2c(cn1)C1(CC1)CN2c1cc(C)cc(OC(C)C)n1` [Example 334, N-(1′-(6-isopropoxy-4-methylpyridin-2-yl)-1′,2′-dihydrospiro[cyclopropane-1,3′-pyrrolo[3,2-c]pyridin]-6′-yl)acetamide trifluoroacetate] were, in that order, 7.00 to 8.00 and not above 6.00.
The like results for `CCOc1cc(C)cc(N2CC3(CC3)c3cnc(NC(C)=O)cc32)n1` [Example 335, N-(1′-(6-ethoxy-4-methylpyridin-2-yl)-1′,2′-dihydrospiro[cyclopropane-1,3′-pyrrolo[3,2-c]pyridin]-6′-yl)acetamide trifluoroacetate] were, in that order, 7.00 to 8.00 and not above 6.00.
As to `COC(C)(C)COc1cc(C)cc(N2CC3(CC3)c3cnc(NC(C)=O)cc32)n1` [Example 336, N-(1′-(6-(2-methoxy-2-methylpropoxy)-4-methylpyridin-2-yl)-1′,2′-dihydrospiro[cyclopropane-1,3′-pyrrolo[3,2-c]pyridin]-6′-yl)acetamide trifluoroacetate], the pIC50 at JH2 domain of human Tyk2 is 6.00 to 7.00; in experiment [1], not above 6.00.
Consider `CC(=O)Nc1cc2c(cn1)C1(CC1)CN2c1cc(C)cc(OC2CCC(O)C2)n1` (centres unmarked) [Example 337, N-(1′-(6-((3-hydroxycyclopentyl)oxy)-4-methylpyridin-2-yl)-1′,2′-dihydrospiro[cyclopropane-1,3′-pyrrolo[3,2-c]pyridin]-6′-yl)acetamide trifluoroacetate], for which the negative-log IC50 (pIC50) on JH2 domain of human Tyk2 was 7.00 to 8.00; in experiment [1] it was 6.00 to 7.00.
Take `COC1CCC(Oc2cc(C)cc(N3CC4(CC4)c4cnc(NC(C)=O)cc43)n2)C1` (centres unmarked) [Example 338, N-(1′-(6-((3-methoxycyclopentyl)oxy)-4-methylpyridin-2-yl)-1′,2′-dihydrospiro[cyclopropane-1,3′-pyrrolo[3,2-c]pyridin]-6′-yl)acetamide trifluoroacetate]: the pIC50 (at JH2 domain of human Tyk2; in experiment [1]) was 6.00 to 7.00 in each case.
Turning to `CC(=O)Nc1cc2c(cn1)C1(CC1)CN2c1cc(C)cc(OC2CCOC2)n1` (centres unmarked) [Example 339, N-(1′-(4-methyl-6-((tetrahydrofuran-3-yl)oxy)pyridin-2-yl)-1′,2′-dihydrospiro[cyclopropane-1,3′-pyrrolo[3,2-c]pyridin]-6′-yl)acetamide trifluoroacetate], the values for the pIC50 (on JH2 domain of human Tyk2; in experiment [1]) were 7.00 to 8.00 and not above 6.00, respectively.
The like results for `CC(=O)Nc1cc2c(cn1)C1(CC1)CN2c1cc(C)cc(OC2CCC2)n1` [Example 340, N-(1′-(6-cyclobutoxy-4-methylpyridin-2-yl)-1′,2′-dihydrospiro[cyclopropane-1,3′-pyrrolo[3,2-c]pyridin]-6′-yl)acetamide trifluroacetate] were, in that order, 7.00 to 8.00 and not above 6.00.
In the case of `CC(=O)Nc1cc2c(cn1)C1(CC1)CN2c1cc(C)cc(OC2COC2)n1` [Example 341, N-(1′-(4-methyl-6-(oxetan-3-yloxy)pyridin-2-yl)-1′,2′-dihydrospiro[cyclopropane-1,3′-pyrrolo[3,2-c]pyridin]-6′-yl)acetamide trifluoroacetate], the negative-log IC50 (pIC50) (at JH2 domain of human Tyk2; in experiment [1]) was not above 6.00 in each case.
